Where two headings read alike, the source gives them in different places.
Experiments:
ABCG2 [1] = target: T1, ABCG2 (Homo sapiens, UniProt Q9UNQ0); assay: ABCG2 ATPase activity, High-Five insect cell total membranes; assay type: biochemical; design: expressed in transfected cells
T1 sequence (Q9UNQ0 1-655): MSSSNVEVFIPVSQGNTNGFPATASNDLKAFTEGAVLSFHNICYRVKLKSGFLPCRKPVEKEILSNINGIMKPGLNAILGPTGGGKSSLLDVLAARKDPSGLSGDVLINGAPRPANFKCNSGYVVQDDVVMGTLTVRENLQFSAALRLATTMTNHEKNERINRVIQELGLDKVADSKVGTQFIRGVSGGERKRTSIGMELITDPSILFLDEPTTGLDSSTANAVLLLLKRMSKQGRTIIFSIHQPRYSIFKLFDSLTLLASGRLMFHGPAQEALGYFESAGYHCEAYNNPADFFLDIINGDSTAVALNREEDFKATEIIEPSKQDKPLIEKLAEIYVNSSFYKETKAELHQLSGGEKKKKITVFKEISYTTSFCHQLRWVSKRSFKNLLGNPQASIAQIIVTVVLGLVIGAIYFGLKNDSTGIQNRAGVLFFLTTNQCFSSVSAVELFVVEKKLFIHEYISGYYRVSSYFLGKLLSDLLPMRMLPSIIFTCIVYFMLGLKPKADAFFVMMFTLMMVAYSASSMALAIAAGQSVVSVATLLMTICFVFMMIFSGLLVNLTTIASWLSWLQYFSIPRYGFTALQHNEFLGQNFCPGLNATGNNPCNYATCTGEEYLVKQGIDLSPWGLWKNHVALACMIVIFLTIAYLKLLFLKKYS
Protocol: The ATPase assay was carried out as previously described. High-Five insect cell total membranes overexpressing ABCG2 were used at a concentration of 5 µg protein/tube in a final volume of 100 µL. The membranes were incubated in assay buffer containing 50 mM Tris–HCl, pH 6.8, 150 mM N-methyl-D-glucamine (NMDG)-Cl, 5 mM sodium azide, 1 mM EGTA, 1 mM ouabain, 2 mM DTT, and 10 mM MgCl2, in the presence or absence of sodium orthovanadate (0.3 mM). The protein-buffer mix was treated with the compounds at increasing concentrations (0.001–5 µM) and incubated for 20 min at 37 °C in the presence of ATP (5 mM). The reaction was stopped with the addition of 100 µL of 5% SDS, for color development was added 400 µL of Pi solution (sulfuric acid 36.2 N, water, ammonium molybdate and antimony potassium tartrate) and 200 µL of 1% ascorbic acid. The absorbance was measured after 10 min at 880 nm using a spectrophotometer Ultrospec 3100 pro (Amersham Biosciences).
Table S2. Effect of indeno[1,2-b]indole derivatives on the ATPase activity of ABCG2.The vanadate-sensitive ATPase activity of ABCG2 was measured using the total membranes of High-Five insect cells expressing this transporter as described previously [S5]. The EC50 (concentration required to achieve 50% stimulation) is given as the concentration ± SD (nM) of three independent experiments in duplicate.

H460MX20 cells = assay: Sensitization of lung cancer cells overexpressing ABCG2 to SN-38, MTT assay; assay type: cell-based, human; conditions: H460MX20, SN-38 10 nM, 72 h, IC50 value or 5 µM
Protocol: (§1) Cell viability was evaluated with a 3-(4,5-dimethylthiazol-2-yl)-2,5-diphenyltetrazolium bromide (MTT) colorimetric assay. HEK293 WT and HEK293-ABCG2 cells were seeded into 96-well culture plates at a 1.5 × 10^4 cells/well density. After overnight incubation, the cells were treated with various concentrations of compounds (0–100 µM) for 72 h at 37 °C under 5% CO2. […] Sensitization experiments were also carried out on H460 and H460MX20 cells. For these experiments, H460 and H460MX20 cells were seeded into 96-well culture plates at 1.0 × 10^4 cells/well density. […] After the treatment, the culture medium was removed and 100 μL of a 0.5 mg.mL^−1 MTT solution was added. Cells were then incubated for 4 h at 37 °C under 5% CO2. The formazan crystals were dissolved with a solution of DMSO/ethanol (1:1) and the absorbance was measured at 570 nm using a Multiscan FC microplate reader (Thermo Scientific). The results were expressed as percentage of viable cells versus control cells (0.1% DMSO, v/v) taken as 100%.

HEK293-ABCG2 cells = assay: Sensitization of ABCG2-transfected cells to SN-38, MTT assay; assay type: cell-based, human; conditions: for Chemosensitization to SN-38: HEK293-ABCG2, 72 h co-treatment, IC50 value or 5 µM; for FR, fold reversal: vs HEK293 WT
Protocol: as §1

ABCG2 [2] = target: T1, ABCG2; assay: Thermostabilization assay (ATPase activity after heating); assay type: biochemical; conditions: 10 µM, curves with or without ATP
Protocol: The thermal stability assay was performed according to the published. Total membrane prepared from High Five insect cells overexpressing the ABCG2 at 3 µg protein/tube concentration were incubated with assay buffer composed by 50 mM Tris–HCl, pH 6.8, 150 mM N-methyl-D-glucamine (NMDG)-Cl, 5 mM sodium azide, 1 mM ouabain and 2 mM DTT in the presence or absence of 0.3 mM orthovanadate at final volume of 50 µL. To evaluate the effect of those inhibitors over thermal stability, each sample was prepared with 12.5 mM MgCl2 or 6.25 mM ATP and incubated with a temperature range from 37 to 71 °C for 10 min using a thermocycler C1000 Touch (Bio-Rad, Hercules, CA). After incubation, 10 µL of 25 mM ATP or 50 mM MgCl2 (5 and 10 mM final concentration, respectively) was added and incubated at 37 °C/20 min to allow ATP hydrolysis. The reaction was stopped with the addition of 50 µL of Pi solution containing 1% ammonium molibdate, 2.5 N H2SO4 and 0.014% potassium-antimony tartrate. To evaluate the absorbance, the samples were transferred to a 96 well plate (50 µL/well), added 150 µL of 0.33% sodium ascorbate solution. The absorbance was measured after 15 min incubation at room temperature using the microplate reader Spectramax iD3 (Molecular Devices, San Jose, CA). The sensitive activity to vanadate (Vi) was calculated as the difference between the activity in the absence of Vi minus the activity in the presence of Vi to each temperature.

[3] = EC50 (nM ± SD) values of stimulation on the ATPase activity of ABCG2, vanadate-sensitive ATPase, High-Five insect cell total membranes
[4] = EC50 of stimulation of ABCG2 ATPase activity, approximate values
[5] = HEK293-ABCG2, SN-38 + inhibitor at 5 µM
[6] = HEK293-ABCG2, SN-38 + inhibitor at its IC50 value

Structure (SMILES)	EC50 (ABCG2 [1]; [3]) [nM]	EC50 (ABCG2 [1]; [4]) [nM]	Chemosensitization to SN-38 (H460MX20 cells)	Chemosensitization to SN-38 (HEK293-ABCG2 cells)	FR, fold reversal (HEK293-ABCG2 cells; [5])	FR, fold reversal (HEK293-ABCG2 cells; [6])	Thermostabilization effect (ABCG2 [2])	EC50 (ABCG2 [1]; approximate values, read-out: EC50 of stimulation of ABCG2 ATPase activity) [nM]	EC50 (ABCG2 [1]; vanadate-sensitive ATPase, High-Five insect cell total membranes, read-out: EC50 (nM ± SD) values of stimulation on the ATPase activity of ABCG2) [nM]
COc1ccccc1CCn1c2c(c3c(O)cc(C)cc31)C(=O)c1ccccc1-2 [6a, 9-Hydroxy-7-methyl-5-(2-methoxyphenethyl)-5H-indeno[1,2-b]indol-10(5H)-one]	2.9 ± 0.45	~3	chemoresistance phenotype was fully reversed	efficiently chemosensitize	0.47	0.82	moderate effect		
COc1cccc(CCn2c3c(c4c(O)cccc42)C(=O)c2ccc(O)cc2-3)c1 [6d, 3,9-Dihydroxy-5-(3-methoxyphenethyl)indeno[1,2-b]indol-10(5H)-one]	3.2 ± 0.44	~3			0.64	12.48	most pronounced effect		
COc1ccc2[nH]cc(CCn3c4c(c5c(O)cccc53)C(=O)c3ccccc3-4)c2c1 [6c, 9-Hydroxy-5-(2-(5-methoxy-1H-indol-3-yl)ethyl)indeno[1,2-b]indol-10(5H)-one]	4.4 ± 0.71	~3			0.37	1.13	most pronounced effect		
COc1cc2c(cc1OC)-c1c(c3c(n1CCc1ccccc1)CC(C)CC3=O)C2=O (stereo not drawn) [5e, 2,3-Dimethoxy-7-methyl-5-phenethyl-5,6,7,8-tetrahydroindeno[1,2-b]indole-9,10-dione]			chemoresistance phenotype was fully reversed	efficiently chemosensitize	3.08	9.51	moderate effect	~170	170 ± 11

Reference: PMC7815716, “Mechanistic basis of breast cancer resistance protein inhibition by new indeno[1,2-b]indoles” (Scientific Reports, 2021)
